Measured values taken from paper PMC3961306, “Comparison of the Cancer Gene Targeting and Biochemical Selectivities of All Targeted Kinase Inhibitors Approved for Clinical Use” (PLoS ONE, 2014).
Where two headings read alike, the source gives them in different places.

How the values were obtained:
Test in all cases: Kinase profiling in a biochemical assay panel (mobility shift assays and ELISA), %-inhibition at 1 μM; selectivity entropy
[1] = biological target: T1, panel of more than 300 wild-type and mutant kinases (313 kinase panel) (Homo sapiens, UniProt P51955)
T1 sequence (P51955 1-445): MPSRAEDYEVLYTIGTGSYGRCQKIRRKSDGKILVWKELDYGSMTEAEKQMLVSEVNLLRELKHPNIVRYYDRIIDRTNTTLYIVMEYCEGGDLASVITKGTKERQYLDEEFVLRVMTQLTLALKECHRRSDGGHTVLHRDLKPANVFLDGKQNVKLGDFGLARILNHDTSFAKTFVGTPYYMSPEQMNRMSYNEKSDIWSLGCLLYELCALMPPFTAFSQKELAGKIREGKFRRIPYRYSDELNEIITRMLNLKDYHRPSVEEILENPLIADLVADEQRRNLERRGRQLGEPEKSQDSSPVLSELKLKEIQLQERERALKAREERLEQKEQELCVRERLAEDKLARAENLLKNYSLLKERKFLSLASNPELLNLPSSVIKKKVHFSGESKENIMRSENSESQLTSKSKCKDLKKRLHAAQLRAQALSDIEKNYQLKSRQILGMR

[2] = biological target: panel of more than 300 wild-type and mutant kinases (313 kinase panel) (Homo sapiens, UniProt P45983)
[3] = biological target: T2, panel of more than 300 wild-type and mutant kinases (313 kinase panel) (Homo sapiens, UniProt Q02156)
T2 sequence (Q02156 1-737): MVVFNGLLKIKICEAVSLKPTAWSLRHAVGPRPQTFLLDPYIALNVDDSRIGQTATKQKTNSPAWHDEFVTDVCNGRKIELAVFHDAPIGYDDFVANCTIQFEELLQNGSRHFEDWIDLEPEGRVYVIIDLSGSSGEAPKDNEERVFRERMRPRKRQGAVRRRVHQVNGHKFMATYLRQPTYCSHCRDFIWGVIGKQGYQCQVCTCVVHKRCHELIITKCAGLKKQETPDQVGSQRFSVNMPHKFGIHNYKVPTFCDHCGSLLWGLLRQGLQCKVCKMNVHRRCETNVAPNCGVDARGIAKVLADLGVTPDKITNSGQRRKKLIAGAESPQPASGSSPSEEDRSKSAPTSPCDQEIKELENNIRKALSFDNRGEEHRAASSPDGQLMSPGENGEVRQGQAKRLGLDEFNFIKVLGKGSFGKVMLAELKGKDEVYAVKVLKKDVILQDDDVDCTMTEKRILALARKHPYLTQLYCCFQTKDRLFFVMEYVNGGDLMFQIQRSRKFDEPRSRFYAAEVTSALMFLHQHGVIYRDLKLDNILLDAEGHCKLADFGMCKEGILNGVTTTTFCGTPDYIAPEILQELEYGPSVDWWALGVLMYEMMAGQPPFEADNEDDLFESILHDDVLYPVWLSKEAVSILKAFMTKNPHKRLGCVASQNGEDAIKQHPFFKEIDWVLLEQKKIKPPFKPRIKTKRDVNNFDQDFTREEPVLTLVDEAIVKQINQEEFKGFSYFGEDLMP

[4] = biological target: panel of more than 300 wild-type and mutant kinases (313 kinase panel) (Homo sapiens, UniProt Q13627)
[5] = biological target: T3, panel of more than 300 wild-type and mutant kinases (313 kinase panel) (Homo sapiens, UniProt Q9HBY8)
T3 sequence (Q9HBY8 1-367): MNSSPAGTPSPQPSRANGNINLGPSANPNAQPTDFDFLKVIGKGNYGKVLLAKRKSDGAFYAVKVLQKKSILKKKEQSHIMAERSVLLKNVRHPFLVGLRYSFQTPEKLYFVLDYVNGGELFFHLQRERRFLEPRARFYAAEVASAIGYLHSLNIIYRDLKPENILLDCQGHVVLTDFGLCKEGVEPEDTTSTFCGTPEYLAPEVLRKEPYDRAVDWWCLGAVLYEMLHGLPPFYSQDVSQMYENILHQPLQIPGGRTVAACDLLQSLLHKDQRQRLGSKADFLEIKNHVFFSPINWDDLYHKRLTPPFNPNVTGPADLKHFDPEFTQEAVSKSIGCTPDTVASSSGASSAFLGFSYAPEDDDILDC

[6] = biological target: panel of more than 300 wild-type and mutant kinases (313 kinase panel) (Homo sapiens, UniProt Q9H2G2)
[7] = biological target: panel of more than 300 wild-type and mutant kinases (313 kinase panel) (Homo sapiens, UniProt P07949)
[8] = biological target: panel of more than 300 wild-type and mutant kinases (313 kinase panel) (Homo sapiens, UniProt Q16288)
[9] = biological target: panel of more than 300 wild-type and mutant kinases (313 kinase panel) (Homo sapiens, UniProt Q07912)
[10] = kinase DYRK1A, compound at 1 μM

Sequence of panel of more than 300 wild-type and mutant kinases (313 kinase panel) (Homo sapiens, UniProt P07949) (P07949 29-1114, change not shown): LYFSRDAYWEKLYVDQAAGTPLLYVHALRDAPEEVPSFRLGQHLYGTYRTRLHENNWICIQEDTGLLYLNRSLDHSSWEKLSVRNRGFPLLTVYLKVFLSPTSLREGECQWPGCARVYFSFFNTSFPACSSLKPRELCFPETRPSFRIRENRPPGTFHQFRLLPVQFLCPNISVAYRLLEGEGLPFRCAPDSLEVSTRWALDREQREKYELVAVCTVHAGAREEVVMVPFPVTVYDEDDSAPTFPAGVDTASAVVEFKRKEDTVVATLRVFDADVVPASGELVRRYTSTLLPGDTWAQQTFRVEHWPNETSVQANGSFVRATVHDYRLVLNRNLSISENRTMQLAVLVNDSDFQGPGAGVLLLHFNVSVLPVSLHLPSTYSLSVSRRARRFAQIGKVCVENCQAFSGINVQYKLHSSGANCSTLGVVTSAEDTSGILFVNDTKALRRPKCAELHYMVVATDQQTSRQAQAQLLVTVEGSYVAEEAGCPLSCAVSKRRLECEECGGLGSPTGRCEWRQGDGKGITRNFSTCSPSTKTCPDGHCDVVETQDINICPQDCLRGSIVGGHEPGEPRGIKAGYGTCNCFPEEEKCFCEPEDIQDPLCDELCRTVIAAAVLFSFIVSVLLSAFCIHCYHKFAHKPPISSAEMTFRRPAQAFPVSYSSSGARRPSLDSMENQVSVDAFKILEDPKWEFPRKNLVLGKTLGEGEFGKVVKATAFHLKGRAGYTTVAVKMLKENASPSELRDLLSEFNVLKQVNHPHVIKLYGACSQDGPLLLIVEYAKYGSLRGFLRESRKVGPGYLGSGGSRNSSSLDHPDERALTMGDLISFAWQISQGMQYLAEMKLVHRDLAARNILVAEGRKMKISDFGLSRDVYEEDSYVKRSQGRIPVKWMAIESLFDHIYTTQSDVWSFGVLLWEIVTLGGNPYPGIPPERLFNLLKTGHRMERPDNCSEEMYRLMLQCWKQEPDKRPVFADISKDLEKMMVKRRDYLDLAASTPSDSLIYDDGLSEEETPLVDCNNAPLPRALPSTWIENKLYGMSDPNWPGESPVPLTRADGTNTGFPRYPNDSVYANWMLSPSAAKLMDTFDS
Sequence of panel of more than 300 wild-type and mutant kinases (313 kinase panel) (Homo sapiens, UniProt P45983) (P45983 whole entry, change not shown): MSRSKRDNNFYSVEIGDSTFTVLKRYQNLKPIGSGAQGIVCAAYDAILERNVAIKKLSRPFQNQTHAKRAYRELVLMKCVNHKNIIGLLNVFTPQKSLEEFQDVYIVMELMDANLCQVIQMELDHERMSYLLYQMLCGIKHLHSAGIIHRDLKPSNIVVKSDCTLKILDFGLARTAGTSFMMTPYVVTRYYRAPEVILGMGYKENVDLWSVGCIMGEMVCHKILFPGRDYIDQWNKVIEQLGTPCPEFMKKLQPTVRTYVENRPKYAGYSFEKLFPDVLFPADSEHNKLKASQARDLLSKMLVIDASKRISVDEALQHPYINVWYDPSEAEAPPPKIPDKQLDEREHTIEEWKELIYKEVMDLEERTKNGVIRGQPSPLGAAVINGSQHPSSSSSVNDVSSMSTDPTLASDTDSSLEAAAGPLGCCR
Sequence of panel of more than 300 wild-type and mutant kinases (313 kinase panel) (Homo sapiens, UniProt Q07912) (Q07912 whole entry, change not shown): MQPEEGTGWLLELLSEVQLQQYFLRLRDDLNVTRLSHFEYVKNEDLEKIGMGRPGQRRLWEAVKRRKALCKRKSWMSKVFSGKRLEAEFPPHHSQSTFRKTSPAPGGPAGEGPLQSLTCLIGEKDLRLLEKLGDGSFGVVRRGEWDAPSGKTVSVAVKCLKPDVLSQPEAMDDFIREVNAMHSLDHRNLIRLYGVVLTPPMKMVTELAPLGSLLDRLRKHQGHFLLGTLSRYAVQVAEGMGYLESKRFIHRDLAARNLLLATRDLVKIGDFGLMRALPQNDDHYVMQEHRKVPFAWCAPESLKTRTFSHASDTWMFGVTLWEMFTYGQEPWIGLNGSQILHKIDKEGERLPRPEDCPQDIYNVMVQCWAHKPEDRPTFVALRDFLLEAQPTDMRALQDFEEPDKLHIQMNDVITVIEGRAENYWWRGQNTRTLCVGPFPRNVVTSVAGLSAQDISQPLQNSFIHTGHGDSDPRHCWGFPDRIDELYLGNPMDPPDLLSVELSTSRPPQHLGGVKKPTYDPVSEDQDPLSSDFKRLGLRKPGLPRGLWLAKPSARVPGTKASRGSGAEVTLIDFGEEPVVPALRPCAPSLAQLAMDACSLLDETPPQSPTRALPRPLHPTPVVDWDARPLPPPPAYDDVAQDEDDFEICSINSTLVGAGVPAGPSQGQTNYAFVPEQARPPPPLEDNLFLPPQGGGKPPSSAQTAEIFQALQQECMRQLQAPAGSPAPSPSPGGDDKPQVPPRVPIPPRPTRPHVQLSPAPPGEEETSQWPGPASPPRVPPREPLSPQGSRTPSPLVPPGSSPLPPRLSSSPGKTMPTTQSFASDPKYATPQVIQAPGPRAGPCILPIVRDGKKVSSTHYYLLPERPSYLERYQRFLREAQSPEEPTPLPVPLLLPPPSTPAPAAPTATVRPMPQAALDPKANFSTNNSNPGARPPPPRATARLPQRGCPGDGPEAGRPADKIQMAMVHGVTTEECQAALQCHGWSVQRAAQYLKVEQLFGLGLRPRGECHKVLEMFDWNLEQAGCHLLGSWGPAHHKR

Compound	%-inhibition of NEK2 ([1]; kinase NEK2, 1 μM)	%-inhibition of JNK1 ([2]; kinase JNK1, compound at 1 μM)	%-inhibition of PKCε ([3]; kinase PKCε, 1 μM)	%-inhibition of DYRK1A [4, 10]	%-inhibition of SGK2 ([5]; kinase SGK2, 1 μM)	%-inhibition of SLK ([6]; kinase SLK, 1 μM)	%-inhibition of RET ([7]; kinase RET, 1 μM)	%-inhibition of TRKC ([8]; kinase TRKC, 1 μM)	%-inhibition, ACK ([9]; kinase ACK, 1 μM compound)	%-inhibition of NEK2 ([1]; 1 µM)	%-inhibition of SLK ([6]; 1 µM)	%-inhibition of RET ([7]; 1 µM)	%-inhibition of JNK1 ([2]; 1 µM)	%-inhibition of TRKC ([8]; 1 µM)	%-inhibition, ACK ([9]; 1 µM)	%-inhibition of PKCε ([3]; 1 µM)	%-inhibition of DYRK1A [4]	%-inhibition of SGK2 ([5]; 1 µM)
C[C@@H](Oc1cc(-c2cnn(C3CCNCC3)c2)cnc1N)c1c(Cl)ccc(F)c1Cl [crizotinib]	-2.69%	0.431%	-7%	-13%	-2.31%	–	–	–	–	–	–	–	–	–	–	–	–	–
CC(C)(C)c1nc(-c2cccc(NS(=O)(=O)c3c(F)cccc3F)c2F)c(-c2ccnc(N)n2)s1 [dabrafenib]	–	-1.12%	5%	16%	-7.58%	12%	49%	81%	24%	–	–	–	–	–	–	–	–	–
COc1cc2c(Nc3ccc(Br)cc3F)ncnc2cc1OCC1CCN(C)CC1 [vandetanib]	-7.42%	-0.604%	-4%	-11%	-2%	90%	–	15%	24%	–	–	–	–	–	–	–	–	–
O=S(=O)(c1cccc2cnccc12)N1CCCNCC1 [fasudil]	-1%	-5.43%	-43%	4.23%	-0.764%	4.5%	-5%	-5.34%	0.581%	–	–	–	–	–	–	–	–	–
C#Cc1cccc(Nc2ncnc3cc(OCCOC)c(OCCOC)cc23)c1 [erlotinib]	–	–	–	–	–	–	–	–	–	-0.556%	89%	70%	1.68%	13%	37%	0.598%	20%	10%
COc1cc2nccc(Oc3ccc(NC(=O)C4(C(=O)Nc5ccc(F)cc5)CC4)cc3)c2cc1OC [cabozantinib]	-0.384%	-2.85%	3%	-5%	-1.48%	52%	–	98%	30%	–	–	–	–	–	–	–	–	–
Cc1ccc(C(=O)Nc2ccc(CN3CCN(C)CC3)c(C(F)(F)F)c2)cc1C#Cc1cnc2cccnn12 [ponatinib]	–	–	12%	–	12%	–	102%	103%	99%	–	–	–	–	–	–	–	–	–
CCCS(=O)(=O)Nc1ccc(F)c(C(=O)c2c[nH]c3ncc(-c4ccc(Cl)cc4)cc23)c1F [vemurafenib]	-1%	1.47%	-8%	-18%	2.66%	43%	32%	5%	40%	–	–	–	–	–	–	–	–	–
Cc1cn(-c2cc(NC(=O)c3ccc(C)c(Nc4nccc(-c5cccnc5)n4)c3)cc(C(F)(F)F)c2)cn1 [nilotinib]	-19%	36%	-0.567%	–	24%	-41%	–	–	13%	–	–	31%	–	–	–	–	-6.52%	–
CS(=O)(=O)CCNCc1ccc(-c2ccc3ncnc(Nc4ccc(OCc5cccc(F)c5)c(Cl)c4)c3c2)o1 [lapatinib]	-3.7%	-6%	–	–	1.81%	–	–	4%	–	–	10%	-0.304%	–	–	2.36%	–	3.25%	–
CNC(=O)c1cc(Oc2ccc(NC(=O)Nc3ccc(Cl)c(C(F)(F)F)c3)c(F)c2)ccn1 [regorafenib]	-6.65%	-1.47%	-8%	-15%	1%	29%	–	93%	-3.35%	–	–	102%	–	–	–	–	–	–
Cc1nc(Nc2ncc(C(=O)Nc3c(C)cccc3Cl)s2)cc(N2CCN(CCO)CC2)n1 [dasatinib]	–	–	–	–	6%	–	–	–	–	–	–	–	–	–	–	–	–	–
Cc1ccc(Nc2nccc(N(C)c3ccc4c(C)n(C)nc4c3)n2)cc1S(N)(=O)=O [pazopanib]	27%	–	-5.38%	–	-3.44%	28%	–	21%	13%	–	–	–	–	–	–	–	–	–
N#CC[C@H](C1CCCC1)n1cc(-c2ncnc3[nH]ccc23)cn1 [ruxolitinib]	-4%	-3%	-2.79%	-5%	-1.48%	7%	–	–	93%	–	–	–	–	–	–	–	–	–
CO[C@H]1C[C@@H]2CC[C@@H](C)[C@@](O)(O2)C(=O)C(=O)N2CCCC[C@H]2C(=O)O[C@H]([C@H](C)C[C@@H]2CC[C@@H](OCCO)[C@H](OC)C2)CC(=O)[C@H](C)/C=C(\C)[C@@H](O)[C@@H](OC)C(=O)[C@H](C)C[C@H](C)/C=C/C=C/C=C/1C [everolimus]	-7%	-5%	-2.79%	-11%	-2%	-2.67%	-4%	-5%	-4.62%	–	–	–	–	–	–	–	–	–
COc1cc(Nc2c(C#N)cnc3cc(OCCCN4CCN(C)CC4)c(OC)cc23)c(Cl)cc1Cl [bosutinib]	–	–	-0.711%	–	-3.37%	–	95%	–	97%	–	–	–	–	–	–	–	–	–
